Laboratory results taken from US9593305B2, “Differentiation of pluripotent stem cells” (Janssen Biotech, Inc., priority 2008, dated 2017).
Like-named read-outs stand apart in the source and are kept apart here.

How the values were obtained:
[1] = system: H1 human embryonic stem cells; test: Analogue screening in combination with only GDF-8, SOX17 (Example 21, Tables 18 and 19); type: cell-based; parameters: Sox17 Expression: % of positive control / Cell Number: % of positive control: tested at 2.5 µM; details: compound in combination with GDF8
Description: Briefly, clusters of H1 human embryonic stem cells were grown on reduced growth factor Matrigel™ (Invitrogen; Cat #356231)-coated tissue culture plastic. Cells were passaged using collagenase (Invitrogen; Cat #17104-019) treatment and gentle scraping, washed to remove residual enzyme, and plated with even dispersal at a ratio of 1:1 (surface area) on reduced growth factor […]™ (BD Biosciences; Cat #356231)-coated 96-well black plates (Packard ViewPlates; PerkinElmer; Cat #6005182) using volumes of 100 μl/well. Cells were allowed to attach and then recover log phase growth over a 1 to 3 day time period, feeding daily with MEF conditioned medium supplemented with 8 ng/ml bFGF (R&D Systems; Cat #233-FB). Plates were maintained at 37° C., 5% CO2 in a humidified box throughout the duration of assay.
Screening was conducted using a library of the analogue compounds. Compounds from this library were made available as 5 mM stocks in 96-well plate format, solubilized in 100% DMSO (Sigma; Cat #D2650) and stored at −80° C. The library compounds were further diluted to an intermediate concentration of 0.2 mM in 50 mM HEPES (Invitrogen; Cat #15630-080), 20% DMSO and stored at 4° C. Test conditions were performed in triplicate, feeding on alternating days over a four-day assay period. Assays were initiated by aspirating culture medium from each well followed by three washes in PBS (Invitrogen; Cat #14190) to remove residual growth factors. On the first day of assay, test volumes of 200 μl per well were added to each well using DMEM:F12 base medium (Invitrogen; Cat #11330-032) supplemented with 0.5% FCS (HyClone; Cat #SH30070.03) and 200 ng/ml GDF-8 (R&D Systems, Cat #788-G8) plus 2.5 μM compound. On the third day of assay, test volumes of 100 μl per well were added to each well using DMEM:F12 base medium supplemented with 2% FCS plus 200 ng/ml GDF-8 (R&D Systems, Cat #788-G8). Positive control samples contained the same base medium supplemented with FCS and 1000 ng/ml recombinant human activin A (PeproTech; Cat #120-14) throughout the four-day assay along with Wnt3a (20 ng/ml) on days 1 and 2. Negative control samples contained DMEM:F12 base medium supplemented with FCS, adding Wnt3a on days 1 and 2 but omitting treatment with activin A.
At the conclusion of four-days of culture, assay plates were washed twice with PBS (Invitrogen; Cat #14190), fixed with 4% paraformaldehyde (Alexis Biochemical; Cat #ALX-350-011) at room temperature for 20 minutes, then washed three times with PBS and permeabilized with 0.5% Triton X-100 (Sigma; Cat #T8760-2) for 20 minutes at room temperature. Cells were washed again three times with PBS and blocked with 4% chicken serum (Invitrogen; Cat #16110082) in PBS for 30 minutes at room temperature. Primary antibody (goat anti-human SOX17; R&D Systems; Cat #AF1924) was diluted 1:100 in 4% chicken serum and added to each well for one hour at room temperature. Alexa Fluor 488 conjugated secondary antibody (chicken anti-goat IgG; Molecular Probes; Cat #AZ1467) was diluted 1:200 in PBS and added to each sample well after washing three times with PBS. To counterstain nuclei, 4 μg/ml Hoechst 33342 (Invitrogen; Cat #H3570) was added for ten minutes at room temperature. Plates were washed once with PBS and left in 100 μl/well PBS for imaging.
Imaging was performed using an IN Cell Analyzer 1000 (GE Healthcare) utilizing the 51008bs dichroic for cells stained with Hoechst 33342 and Alexa Fluor 488. Exposure times were optimized from positive control wells and from untreated negative control wells stained with secondary antibody alone. Images from 15 fields per well were acquired to compensate for any cell loss during the bioassay and subsequent staining procedures. Measurements for total cell number and total SOX17 intensity were obtained from each well using IN Cell Developer Toolbox 1.7 (GE Healthcare) software. […]

[2] = system: H1 human embryonic stem cells; test: Secondary assay: compound combined with individual growth factors or small molecules, no activin A (Example 5, Table 4); type: cell-based; details: for increase in SOX17 expression (% of the activin A/Wnt3a control): growth factor 50 ng/ml combined with 2.5 μM compound and Wnt3a
Description: Clusters of H1 human embryonic stem cells were grown on reduced growth factor […]™ (Invitrogen; Cat #356231)-coated tissue culture plastic. Cells were passaged using collagenase (Invitrogen; Cat #Cat #17104-019) treatment and gentle scraping, washed to remove residual enzyme, and plated with even dispersal at a ratio of 1:1 (surface area) on reduced growth factor […]™-coated 96-well black plates (Packard ViewPlates; PerkinElmer; Cat #6005182) using volumes of 100 μl/well. Cells were allowed to attach as clusters and then recover log phase growth over a 1 to 3 day period, feeding daily with MEF conditioned medium supplemented with 8 ng/ml bFGF (R&D Systems; Cat #233-FB). Plates were maintained at 37° C., 5% CO2 in a humidified box throughout the duration of assay.
Other agents tested were purchased as follows: BMP-7 (Sigma; Cat #B1434), LY294002 (Cayman; Cat 70920), PD98059, U0126, U0124 (EMD Biosciences; Cat #453710), muscimol (Tocris; Cat #0289), biuculline (Tocris; Cat #0130), sodium butyrate (Sigma; Cat #B5887). All growth factors were solubilized in PBS with 0.1% BSA (Sigma; Cat #A7888) and stored frozen at −80° C. Small molecules were solubilized in 100% DMSO (Sigma; Cat #D2650) and stored frozen at −80° C. The compounds were available as 5 mM stocks in 96-well plate format, solubilized in 100% DMSO and stored at −80° C. The compounds of the present invention were further diluted to an intermediate concentration of 0.2 mM in 50 mM HEPES (Invitrogen; Cat #15630-080), 20% DMSO and stored at 4° C. All growth factors and inhibitors were prepared in a deep well, 96-well polypropylene plate, diluted to 5× intermediate stocks in DMEM:F12 base medium at the beginning of assay and stored at 4° C.
A secondary screening assay was conducted, testing in triplicate and feeding on alternate days over the four-day assay timeframe. Assays were initiated by aspirating culture medium from each well followed by three washes in PBS to remove residual growth factors and serum. Test volumes of 80 μl per well were added back containing DMEM:F12 base medium (Invitrogen; Cat #11330-032) supplemented with 0.625% FCS (HyClone; Cat #SH30070.03), 25 ng/ml Wnt3a (R&D Systems), and 3.125 μM compound plus 20 μl 5× stock of growth factor or small molecule to yield a final concentration of 0.5% FCS, 20 ng/ml Wnt3a, and 2.5 μM compound. […] Final assay concentrations of small molecules tested were as follows: muscimol (20 μM), PD98059 (1 μM), LY294002 (2.5 μM), 00124 (1 μM), U0126 (1 μM), sodium butyrate (0.5 mM). Positive control wells (100 μl/well) contained the same base medium supplemented with 0.5% FCS, 20 ng/ml Wnt3a and 100 ng/ml activin A. Negative control wells (100 μl/well) contained the same base medium with 0.5% FCS and 20 ng/ml Wnt3a, omitting activin A.
On day 3, wells were aspirated and fed with 80 μl DMEM:F12 base medium supplemented with 2.5% FCS (HyClone) and 3.125 μM cyclic aniline-pyridinotriazine compound plus 20 μl 5× stock of growth factors or small molecules per well to yield a final concentration of 2% FCS and 2.5 μM compound (omitting Wnt3a) and as denoted on day one for all remaining growth factors or small molecules. Positive control wells (100 μl/well) contained the same base medium supplemented with 2% FCS and 100 ng/ml activin A, omitting Wnt3a. Negative control wells (100 μl/well) contained the same base medium with 2% FCS, omitting both activin A and Wnt3a.
At the conclusion of four-days of culture, assay plates were washed twice with PBS, fixed with 4% paraformaldehyde (Alexis Biochemical; Cat #ALX-350-011) at room temperature for 20 minutes, then washed three times with PBS and permeabilized with 0.5% Triton X-100 (Sigma; Cat #T8760-2) for 20 minutes at room temperature. Cells were washed again three times with PBS and blocked with 4% chicken serum (Invitrogen; Cat #16110082) in PBS for 30 minutes at room temperature.

[3] = relative to Activin A/Wnt3a of the same plate
[4] = agent combined with 2.5 μM compound and Wnt3a, no activin A

OCCc1cccc(Nc2ncnc(-c3cccnc3)n2)c1 [Compound 2, 2-{3-[(4-Pyridin-3-yl-1,3,5-triazin-2-yl)amino]phenyl}ethanol]
Cell Number: Average Total Cell Number ([1]; four assay plates): 4538
Sox17 Expression: Average Total Intensity ([1]; four assay plates): 2.95E+07
Cell Number: % of positive control [1, 3]: 30.2%
Sox17 Expression: % of positive control [1, 3]: 8.6%

CCCC(=O)[O-].[Na+] [sodium butyrate, reference compound]
effect on SOX17 expression [2, 4]: inhibited or had negligible effects on SOX17 expression

CS/C(N)=C(C#N)/C(C#N)=C(\N)SC [Compound U0124, U0124, reference compound]
effect on SOX17 expression [2, 4]: inhibited or had negligible effects on SOX17 expression

N#CC(=C(/N)Sc1ccccc1N)/C(C#N)=C(\N)Sc1ccccc1N [Compound U0126, U0126, reference compound]
effect on SOX17 expression [2]: inhibited or had negligible effects on SOX17 expression

NCc1cc(=O)[nH]o1 [muscimol, reference compound]
effect on SOX17 expression [2, 4]: modest increase in SOX17 expression

COc1cccc(-c2cc(=O)c3ccccc3o2)c1N [PD98059, reference compound]
effect on SOX17 expression [2, 4]: inhibited or had negligible effects on SOX17 expression

VEGF
increase in SOX17 expression (% of the activin A/Wnt3a control) ([2]; no activin A): 18%

B1: BMP-1: member of the BMP family, R&D Systems (protein, UniProt P13497 121-986, looked up)
Bone morphogenetic protein 1: AATSRPERVWPDGVIPFVIGGNFTGSQRAVFRQAMRHWEKHTCVTFLERTDEDSYIVFTYRPCGCCSYVGRRGGGPQAISIGKNCDKFGIVVHELGHVVGFWHEHTRPDRDRHVSIVRENIQPGQEYNFLKMEPQEVESLGETYDFDSIMHYARNTFSRGIFLDTIVPKYEVNGVKPPIGQRTRLSKGDIAQARKLYKCPACGETLQDSTGNFSSPEYPNGYSAHMHCVWRISVTPGEKIILNFTSLDLYRSRLCWYDYVEVRDGFWRKAPLRGRFCGSKLPEPIVSTDSRLWVEFRSSSNWVGKGFFAVYEAICGGDVKKDYGHIQSPNYPDDYRPSKVCIWRIQVSEGFHVGLTFQSFEIERHDSCAYDYLEVRDGHSESSTLIGRYCGYEKPDDIKSTSSRLWLKFVSDGSINKAGFAVNFFKEVDECSRPNRGGCEQRCLNTLGSYKCSCDPGYELAPDKRRCEAACGGFLTKLNGSITSPGWPKEYPPNKNCIWQLVAPTQYRISLQFDFFETEGNDVCKYDFVEVRSGLTADSKLHGKFCGSEKPEVITSQYNNMRVEFKSDNTVSKKGFKAHFFSDKDECSKDNGGCQQDCVNTFGSYECQCRSGFVLHDNKHDCKEAGCDHKVTSTSGTITSPNWPDKYPSKKECTWAISSTPGHRVKLTFMEMDIESQPECAYDHLEVFDGRDAKAPVLGRFCGSKKPEPVLATGSRMFLRFYSDNSVQRKGFQASHATECGGQVRADVKTKDLYSHAQFGDNNYPGGVDCEWVIVAEEGYGVELVFQTFEVEEETDCGYDYMELFDGYDSTAPRLGRYCGSGPPEEVYSAGDSVLVKFHSDDTITKKGFHLRYTSTKFQDTLHSRK
effect on SOX17 expression [2, 4]: inhibited or had negligible effects on SOX17 expression

B2: FGF4: growth factor purchased from R&D Systems (protein, UniProt P08620 31-206, looked up)
Fibroblast growth factor 4: APTAPNGTLEAELERRWESLVALSLARLPVAAQPKEAAVQSGAGDYLLGIKRLRRLYCNVGIGFHLQALPDGRIGGAHADTRDSLLELSPVERGVVSIFGVASRFFVAMSSKGKLYGSPFFTDECTFKEILLPNNYNAYESYKYPGMFIALSKNGKTKKGNRVSPTMKVTHFLPRL
retention of cell numbers ([2]; 50 ng/ml combined with 2.5 μM compound and Wnt3a, no activin A): not able to support retention of cell numbers
increase in SOX17 expression (% of the activin A/Wnt3a control) ([2]; no activin A): 17%

B3: BMP-7: member of the BMP family (protein, UniProt P18075 293-431, looked up)
Bone morphogenetic protein 7: STGSKQRSQNRSKTPKNQEALRMANVAENSSSDQRQACKKHELYVSFRDLGWQDWIIAPEGYAAYYCEGECAFPLNSYMNATNHAIVQTLVHFINPETVPKPCCAPTQLNAISVLYFDDSSNVILKKYRNMVVRACGCH
effect on SOX17 expression [2, 4]: inhibited or had negligible effects on SOX17 expression

B4: BMP-6: member of the BMP family, R&D Systems (protein, UniProt P22004 375-513, looked up)
Bone morphogenetic protein 6: SASSRRRQQSRNRSTQSQDVARVSSASDYNSSELKTACRKHELYVSFQDLGWQDWIIAPKGYAANYCDGECSFPLNAHMNATNHAIVQTLVHLMNPEYVPKPCCAPTKLNAISVLYFDDNSNVILKKYRNMVVRACGCH
effect on SOX17 expression [2, 4]: inhibited or had negligible effects on SOX17 expression
